Active and inactive are the calls of the source.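 Rule for the calls: active = parasite count per well reduced by over 3 SD from the mean, with host cell number above 80% of untreated; inactive = the rest.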
Test system: L. donovani amastigotes in THP-1 macrophages, DAPI imaging, 72 h
Experiment: L. donovani intracellular amastigote growth inhibitors, imaging, THP-1 host macrophages, single concentration (AID 977614);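 note: signal is the parasite per host cell ratio from DAPI stained kinetoplasts and nuclei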

Compound	AC50
O=C(c1ccc2c(c1)OCO2)N1C[C@H]2[C@@H](c3ccccc31)[C@@H](CO)N2C(=O)CC1CC1	> 10 µM (inactive)
CN(C[C@H]1[C@H](c2ccccc2)[C@H](CO)N1Cc1ccccn1)S(C)(=O)=O	> 10 µM (inactive)
C[C@@H]1CN([C@@H](C)CO)C(=O)CCCn2nncc2CO[C@@H]1CN(C)C(=O)Nc1ccc(-c2cccs2)cc1	> 10 µM (inactive)
C/C=C/c1ccc([C@H]2[C@@H](CO)N[C@@H]2CN(Cc2cccnc2)C(=O)C2CC2)cc1	> 10 µM (inactive)
O=C(NC[C@H]1[C@@H](c2ccccc2)[C@H](CO)N1Cc1cccnc1)c1ccccn1	> 10 µM (inactive)
CCC(=O)N1[C@H](CO)[C@H](c2ccccc2)[C@H]1CN(CC1CCC1)S(C)(=O)=O	> 10 µM (inactive)
O=C(C1CCCCC1)N1[C@H](CO)[C@H]2c3ccccc3N(S(=O)(=O)c3ccccc3)C[C@H]21	> 10 µM (inactive)
COCC(=O)N1[C@H](CO)[C@H]2c3ccccc3NC[C@H]21	> 10 µM (inactive)
C[C@H](CO)N1C[C@H](C)[C@H](CN(C)S(=O)(=O)c2ccccc2C#N)OCc2cnnn2CCCC1=O	> 10 µM (inactive)
O=C(CC(F)(F)F)N1C[C@@H]2[C@H](c3ccccc31)[C@H](CO)N2C(=O)c1ccncc1	> 10 µM (inactive)
C[C@H]1CN([C@@H](C)CO)C(=O)CCCn2nncc2CO[C@H]1CN(C)CC1CCCCC1	> 10 µM (inactive)
C/C=C/c1ccc([C@H]2[C@@H](CNC(C)=O)N(C(=O)Cc3ccncc3)[C@H]2CO)cc1	> 10 µM (inactive)
Cc1noc(C)c1NC(=O)N(C)C[C@H]1OCc2cn(nn2)CCCC(=O)N([C@H](C)CO)C[C@@H]1C	> 10 µM (inactive)
CN1[C@H](CO)[C@@H]2c3ccccc3N(C(=O)C3CCCCC3)C[C@@H]21	> 10 µM (inactive)
CCN(C[C@H]1N[C@H](CO)[C@@H]1c1ccccc1)C(=O)c1ccncc1	> 10 µM (inactive)
CCS(=O)(=O)N1[C@H](CO)[C@H](c2ccccc2)[C@H]1CN(C(C)=O)C1CCCC1	> 10 µM (inactive)
CC(C)NC(=O)N1[C@@H]2CNc3ccccc3[C@@H]2[C@@H]1CO	> 10 µM (inactive)
COc1ccccc1S(=O)(=O)N(C)C[C@@H]1OCc2cn(nn2)CCCC(=O)N([C@H](C)CO)C[C@H]1C	> 10 µM (inactive)
O=C(NC[C@H]1[C@H](c2ccccc2)[C@@H](CO)N1C(=O)Cc1ccncc1)C1CCC1	> 10 µM (inactive)

Compound	AC50
C[C@H](CO)N1C[C@H](C)[C@@H](CN(C)Cc2ccccc2C(=O)O)OCc2cnnn2CCCC1=O	> 10 µM (inactive)
C[C@H](CO)N1C[C@H](C)[C@H](CN(C)C(=O)Oc2cccc3ccccc23)OCc2cnnn2CCCC1=O	> 10 µM (inactive)
C[C@H]1CN([C@@H](C)CO)C(=O)CCCn2cc(nn2)CO[C@H]1CN(C)C(=O)Nc1cccc2ccccc12	> 10 µM (inactive)
CCS(=O)(=O)N(C)C[C@@H]1N[C@H](CO)[C@@H]1c1ccc(-c2ccccc2F)cc1	> 10 µM (inactive)
CN(C[C@@H]1N[C@H](CO)[C@H]1c1ccc(C2=CCCC2)cc1)C(=O)c1cccc(F)c1	> 10 µM (inactive)
C[C@@H]1CN([C@@H](C)CO)C(=O)CCCn2nncc2CO[C@@H]1CN(C)S(=O)(=O)c1ccc(Oc2ccccc2)nc1	> 10 µM (inactive)
O=C(Nc1ccc(Cl)cc1)N1C[C@H]2[C@@H](c3ccccc31)[C@H](CO)N2CC1CCCCC1	> 10 µM (inactive)
C[C@H]1CN([C@@H](C)CO)C(=O)CCCn2nncc2CO[C@H]1CN(C)S(=O)(=O)c1ccc(Oc2ccccc2)nc1	> 10 µM (inactive)
C/C=C/c1ccc([C@H]2[C@@H](CO)N[C@@H]2CN(C(=O)c2ccccc2F)C(C)C)cc1	> 10 µM (inactive)
CC(=O)N1[C@H](CO)[C@@H](c2ccccc2)[C@@H]1CN(CC(C)C)C(=O)c1ccccn1	> 10 µM (inactive)
C[C@@H]1CN([C@@H](C)CO)C(=O)CCCn2cc(nn2)CO[C@H]1CN(C)S(=O)(=O)c1cccc(C#N)c1	> 10 µM (inactive)
O=C(NC[C@H]1[C@@H](c2ccccc2)[C@H](CO)N1C(=O)C1CCC1)NC1CCCC1	> 10 µM (inactive)
COc1ccc(C(=O)N2C[C@H]3[C@@H](c4ccccc42)[C@H](CO)N3C(=O)NC(C)C)cc1	> 10 µM (inactive)
C[C@@H]1CN([C@@H](C)CO)C(=O)CCCn2nncc2CO[C@@H]1CN(C)C(=O)c1cc(-c2ccccc2)on1	> 10 µM (inactive)
C[C@H]1CN([C@@H](C)CO)C(=O)CCCn2nncc2CO[C@H]1CN(C)S(=O)(=O)c1ccc2c(c1)OCCCO2	> 10 µM (inactive)
O=C(CN1CCOCC1)N1[C@H](CO)[C@H]2c3ccccc3NC[C@H]21	> 10 µM (inactive)
O=S(=O)(NC[C@H]1[C@@H](c2ccccc2)[C@@H](CO)N1CC1CC1)c1ccccc1	> 10 µM (inactive)
O=C(Nc1cccc(F)c1)N1C[C@H]2[C@@H](c3ccccc31)[C@H](CO)N2C(=O)Cc1ccccn1	> 10 µM (inactive)
Cc1ccc(S(=O)(=O)N2C[C@H]3[C@@H](c4ccccc42)[C@@H](CO)N3Cc2cccnc2)cc1	> 10 µM (inactive)
